According to paper PMC3222274 (Molecular and biochemical parasitology, 2011):

Legend:
[1] = biological target: Dv-ACE-1 (Dictyocaulus viviparus, UniProt Q0H0R6); assay: Ellman assay, transfected COS-7 extract, logistic fit; format: biochemical
[2] = tested on: CC(=O)SCC[N+](C)(C)C; assay: Ellman assay, transfected COS-7 extract, fit with Km, Kss and b; format: biochemical, Dictyocaulus viviparus; conditions: pH 7, 0.3 mM DTNB, 167 mM NaCl, substrate-inhibition model
[3] = tested on: CCC(=O)SCC[N+](C)(C)C; assay: as above; format: biochemical, Dictyocaulus viviparus; conditions: pH 7, 0.3 mM DTNB, 167 mM NaCl, substrate-inhibition model
[4] = tested on: CCCC(=O)SCC[N+](C)(C)C; assay: as above; format: biochemical, Dictyocaulus viviparus; conditions: pH 7, 0.3 mM DTNB, 167 mM NaCl, substrate-activation model

## C=CC[N+](C)(C)c1ccc(CCC(=O)CCc2ccc([N+](C)(C)CC=C)cc2)cc1 [BW284c51]
[1]
  IC50: 0.303 µM

## CCN(CC)C(C)CN1c2ccccc2Sc2ccccc21 (stereo not shown) [ethopropazine]
[1]
  IC50: 137 µM

## CC(C)NP(=O)(NC(C)C)OP(=O)(NC(C)C)NC(C)C [iso-OMPA]
[1]
  IC50: > 3000 µM

## CNC(=O)Oc1ccc2c(c1)[C@]1(C)CCN(C)[C@@H]1N2C [physostigmine]
[1]
  IC50: 0.126 µM

## Dv-ACE-1 (Dictyocaulus viviparus)
[2]
  Km: 7.51 ± 0.21 × 10^−4 M
[3]
  Km: 1.59 ± 0.03 × 10^−3 M
[4]
  Km: 4.32 ± 1.61 × 10^−5 M
